Reference: PubChem BioAssay AID449750 (Broad Institute, 2010)
Calls of active or inactive are those of the source. How the calls were made is not given here.

Test: non-covalent RecA intein splicing inhibitors, dose response, biochemical, cell-free, fluorescence, secondary screen (AID 449750)

Structure (SMILES) | AC50
CC(C)(C)Nc1nc(Cl)nc(N(C#N)CN2C(=O)c3ccccc3S2(=O)=O)n1 | > 38 µM (inactive)
CCOC(=O)/C=c1\s/c(=C(\C#N)C(N)=O)n(-c2ccccc2)c1=O | > 38 µM (inactive)
CC1=NN(c2ccc(Cl)c(C(=O)O)c2)C(=O)/C1=C\c1ccc(-c2ccc(C(=O)O)cc2)o1 | 34.1 µM
CC(=O)Oc1c(/C=C(\C#N)C(N)=O)[nH]c2ccccc12 | > 38 µM (inactive)
O=C(CCl)N=c1sccn1Cc1ccc(Cl)cc1Cl | 5.88 µM
S=C1Cc2ccccc2N1 | 3.46 µM
COc1cccc(-c2[nH]nc3c2C(c2ccsc2)C(C#N)=C(N)O3)c1 (configuration not stated) | 5.11 µM
Cc1ccc(N(CCC#N)C(=O)CCl)cc1C | 11.5 µM
O=C(NCc1cccnc1)/C(=C\c1ccc(-c2cccc(Cl)c2)o1)S(=O)(=O)c1ccccc1 | 26.9 µM
Cc1ccc(N2C(=O)NC(=O)/C(=C/c3ccc(OC(=O)c4cccs4)cc3)C2=O)cc1 | 5.9 µM
Cc1ccc2nc(-c3cccs3)oc(=O)c2c1 | > 38 µM (inactive)
CCCCCc1cc(=O)oc2c(C(CCN3CCCC(C)C3)c3ccc(OC)cc3)c(OC)cc(OC)c12 (configuration not stated) | 10.1 µM
CCCc1[nH]nc2c1C(c1ccccc1OC)C(C#N)=C(N)O2 (configuration not stated) | > 38 µM (inactive)
CCOC(=O)CSc1nnc(NCC(=O)OC(C)C)c(=O)[nH]1 | > 38 µM (inactive)
CC(=O)OCCN(C)c1cc(SC(C)C)c2nonc2c1[N+](=O)[O-] | > 38 µM (inactive)
CCOC(=O)c1oc2nc(CC(C)C)c3c(c2c1N)CCC3 | > 38 µM (inactive)
CCCc1nn(C)c2c1C(c1ccncc1)C(C#N)=C(N)O2 (configuration not stated) | > 38 µM (inactive)
Cc1cccc(CS(=O)(=O)c2ncc(Cl)c(C(=O)NCc3ccc4c(c3)OCO4)n2)c1 | > 38 µM (inactive)
Cc1ccc(NC2=C(Cl)C(=O)OC2OC(=O)c2ccco2)cc1C (configuration not stated) | > 38 µM (inactive)
CCN(Cc1ccccc1)S(=O)(=O)c1ccc(C(=O)N(CCCN(C)C)c2nc3cc(C)cc(C)c3s2)cc1 | 15.1 µM
COCc1[nH]nc2c1C(c1cccc(OC)c1)C(C#N)=C(N)O2 (configuration not stated) | > 38 µM (inactive)
O=C(c1ccc2nc(Cc3cccc(Cl)c3)oc2c1)N1CCC(O)CC1 | > 38 µM (inactive)
O=C(O)c1ccc([N+](=O)[O-])c2c1C(=O)c1ccccc1C2=O | > 38 µM (inactive)
CC(C)(C)C(=O)Nc1ccc(N=Nc2ccccc2)cc1 | 7.69 µM
CC1=C(C(=O)OC(C)C)C2(O)C(=O)c3ccccc3C2(O)N1 (configuration not stated) | 9.7 µM
CCOc1cc(C(c2c(C)[nH][nH]c2=O)c2c(C)[nH][nH]c2=O)ccc1OCc1ccc([N+](=O)[O-])cc1 | 6.09 µM

Structure (SMILES) | AC50
N#C[C@H]1[C@H](c2ccccc2)[C@](C#N)(C(=O)c2ccccc2)[C@@H]2C=Cc3ccccc3N21 | > 38 µM (inactive)
CCCCOC(=O)CNc1nnc(SCC(=O)OCC)[nH]c1=O | > 38 µM (inactive)
Cc1noc(C)c1CSCC(=O)Oc1ccc(N(C)S(=O)(=O)c2ccccc2)cc1 | > 38 µM (inactive)
Cc1ccc(-c2csc(NC(=O)CSC3=NCCS3)n2)cc1 | 19.1 µM
Cc1nc2c(=O)n(C)c(=O)nc-2n(C)n1 | 0.0855 µM
CCOC(=O)c1c(NC(=O)c2ccco2)n(C2CCCCC2)c2nc3ccccc3nc12 | > 12 µM (inactive)
N#C/C(=C/c1ccncc1)c1nc2ccccc2s1 | > 38 µM (inactive)
O=C1C(Cl)=C(NCC2CCCO2)C(=O)N1c1ccccc1 (configuration not stated) | > 38 µM (inactive)
COc1ccccc1Oc1cc(C#N)c(C#N)cc1-n1nnc2ccccc21 | 16.5 µM
Cc1[nH]nc2c1C1(CCOCC1)C(C#N)=C(N)O2 | > 38 µM (inactive)
COc1cccc(Nc2c([N+](=O)[O-])cncc2[N+](=O)[O-])c1 | > 38 µM (inactive)
C/C(CC(=O)Nc1ccccn1)=N\NC(=O)c1ccncc1 | 28.8 µM
O=C1CCCC2=C1C(c1ccc3c(c1)OCO3)c1c([nH]n(-c3ccccc3)c1=O)N2 (configuration not stated) | 6.7 µM
Cc1ccc(S(=O)(=O)N(C(=O)c2ccncc2)c2ccc(OC(=O)c3ccncc3)c3ccccc23)cc1 | 4.13 µM
ClC(Cl)(Cl)c1nc2ccccc2n2nncc12 | > 38 µM (inactive)
CCCc1[nH]nc2c1C(c1ccc(OC(=O)N3CCOCC3)cc1)C(C#N)=C(N)O2 (configuration not stated) | > 38 µM (inactive)
CCCCCCOC(=O)c1ccc(OC(=O)c2cccnc2)cc1 | > 38 µM (inactive)
N#Cc1cc([N+](=O)[O-])ccc1NC(=O)COC(=O)CCC1CCCCC1 | 15.1 µM
Cc1ccc([N+](=O)[O-])cc1S(=O)(=O)N(C(=O)c1ccncc1)c1ccc2oc3c(c2c1)CCCC3 | > 38 µM (inactive)
Cc1cccc(CSC(Nc2ccc(F)cc2)=C(C#N)C#N)c1 | > 38 µM (inactive)
CCOc1cc(C(c2c(C)[nH][nH]c2=O)c2c(C)[nH][nH]c2=O)cc(Cl)c1O | > 38 µM (inactive)
CC1=NNC(=O)C1C(c1ccccc1)C(C#N)C#N (configuration not stated) | > 38 µM (inactive)
CCc1[nH]nc2c1C1(CCN(C(=O)c3ccccc3)CC1)C(C#N)=C(N)O2 | 25 µM
COCc1[nH]nc2c1C1(CCSCC1)C(C#N)=C(N)O2 | > 38 µM (inactive)
Cc1cc(F)ccc1S(=O)(=O)N(C(=O)c1ccncc1)c1ccc(OC(=O)c2ccncc2)cc1 | > 38 µM (inactive)
COC(=O)/C(=C1/Oc2cc(C)oc(=O)c2S1)C(F)(F)F | > 38 µM (inactive)

Structure (SMILES) | AC50
CC1=NNC(=O)/C1=C\c1cn(-c2ccccc2)nc1-c1ccccc1 | 8.49 µM
Cc1nc2ccccc2c2c1C(=O)N(C(C)C)C2=O | > 38 µM (inactive)
Nc1cc2nn(-c3ccccc3)nc2cc1Cl | 7.05 µM
CC1=C(C)/C(=N\OS(=O)(=O)c2ccccc2)C=CC1=O | > 38 µM (inactive)
O=C1/C(=C/c2cccc([N+](=O)[O-])c2)CCc2ccccc21 | 11.2 µM
CC(=O)N(Cc1ccc(F)cc1)C1=C(NCc2ccccc2)C(=O)c2ccccc2C1=O | 2.18 µM
Cc1ccc(NC(=O)c2nc(S(=O)(=O)Cc3ccccc3)ncc2Cl)cc1 | > 38 µM (inactive)
COC(=O)c1ccc(C(c2c(C)[nH][nH]c2=O)c2c(C)[nH][nH]c2=O)cc1 | > 38 µM (inactive)
COc1ccc(N(C(=O)COc2cccc(C)c2)S(=O)(=O)c2ccc(C)cc2)cc1 | > 38 µM (inactive)
O=C(Oc1ccc(Br)cc1C(=S)N1CCOCC1)c1cccc([N+](=O)[O-])c1 | > 38 µM (inactive)
Cc1ccc(C(=O)C(OC(=O)CN2C(=O)c3ccccc3C2=O)c2ccccc2)cc1C (configuration not stated) | > 38 µM (inactive)
CCOc1ccc(-n2c(C)cc(C(=O)CCl)c2C)cc1 | 9.25 µM
O=C(C1=C(c2ccccc2)C(=O)c2ccccc2C1=O)c1ccccc1 | 3.45 µM
COc1ccc(/C=C/C(=O)c2ccccc2)cc1COc1ccc(F)cc1 | 2.18 µM
COC(CN(C(=O)CCl)C(C(=O)NC1CCCCC1)c1ccc(C)cc1)OC (configuration not stated) | 17.9 µM
COc1ccc2[nH]c(CN3CCC(CO)(CCOc4ccccc4)CC3)c(C)c2c1 | > 38 µM (inactive)
COc1cc(-n2nc(C)c3c2OC(N)=C(C#N)C3c2ccccc2)c(Cl)c(Br)c1O (configuration not stated) | 16 µM
COc1cc(C2C(C#N)=C(N)Oc3n[nH]c(C)c32)ccc1OC(=O)c1ccccc1 (configuration not stated) | > 38 µM (inactive)
O=c1cc(-c2ccccc2)[nH][nH]1 | 12.8 µM
CC1CC(=O)c2c(cc3c(-c4c(O)cc(O)c5c(O)c6c(cc45)OC(C)CC6=O)c(O)cc(O)c3c2O)O1 (configuration not stated) | 2.71 µM
O=C1C(Cl)=C(N2CCC(C(=O)O)CC2)C(=O)c2ccccc21 | 1.41 µM
Nc1ccc(Nc2ccccc2N)cc1 | 16 µM
O=c1[nH]cc(N=Cc2cc(Cl)cc(Cl)c2O)c(=O)[nH]1 | > 38 µM (inactive)
CC1=C(C)/C(=N/OC(=O)c2cccc([N+](=O)[O-])c2)C=CC1=O | > 38 µM (inactive)
COc1ccc(N2C(=O)C(Cl)=C(N3CCN(Cc4ccccc4)CC3)C2=O)cc1 | > 38 µM (inactive)
C/C(=C/CCC(C)[C@H]1CC[C@@]2(C)C3=C(CC[C@]12C)[C@@]1(C)CCC(=O)C(C)(C)[C@@H]1CC3)C(=O)O (some centres not stated) | 10.7 µM

Structure (SMILES) | AC50
CCOC(=O)c1c(C)oc2c1c(C=NCCC(=O)O)c(O)c1ccccc12 | 22.1 µM
Cc1[nH]n(-c2ccccc2)c(=O)c1/C=C1/C=c2ccccc2=N1 | > 38 µM (inactive)
CC(C)c1nnc(NC(=O)CCS(=O)(=O)c2nc(-c3cccs3)cc(C(F)(F)F)n2)s1 | > 38 µM (inactive)
COc1ccc(-c2cc(=O)[nH][nH]2)cc1OC | 4.35 µM
COc1ccc(-n2nc3c(c2NC(=O)CCl)CSC3)cc1 | 26.9 µM
O=C(O)CN1C(=O)/C(=C\c2ccc(OC(=O)c3ccco3)cc2)SC1=S | > 38 µM (inactive)
Cc1ccc(C(c2c(C)[nH][nH]c2=O)c2c(C)[nH][nH]c2=O)cc1 | 8.37 µM
Cc1nc(COC(=O)c2cc(O)c3ccccc3c2O)cs1 | 15.1 µM
Cc1oc2c(c1C(=O)N1CCOCC1)C(=O)c1ccccc1C2=O | 9.55 µM
COc1ccc(S(=O)(=O)Nc2ccc(O)c3ccccc23)cc1 | 0.296 µM
CNC(=O)c1nnsc1S(=O)(=O)c1ccc(Cl)cc1 | > 38 µM (inactive)
COc1ccc(NC(=O)Cn2ncc(Cl)c(Cl)c2=O)cc1S(=O)(=O)N1CCOCC1 | > 38 µM (inactive)
Cc1cc(C(=O)c2ccccc2)c(NC(=O)CCl)s1 | 7.09 µM
CC1=C(C)/C(=N\OC(=O)/C=C/c2ccccc2)C=CC1=O | > 38 µM (inactive)
COc1ccc(C=C(c2nc3ccccc3s2)c2nc3ccccc3s2)cc1O | 3.04 µM
Cc1ccc(-n2nc(C)c3c2OC(N)=C(C#N)C3c2ccco2)cc1 (configuration not stated) | 12.9 µM
COc1ccc(C(=O)c2c(C(F)(F)F)oc3c2C(=O)c2ccccc2C3=O)cc1 | 0.93 µM
CC1(S(=O)(=O)O)CC(=O)c2ccccc2C1=O (configuration not stated) | 6.36 µM
COc1cccc(C(=O)O/N=C(\N)c2ccc([N+](=O)[O-])cc2)c1OC | > 38 µM (inactive)
CN(C1=C(NC(=O)c2ccc(Cl)cc2)C(=O)c2ccccc2C1=O)c1ccccc1 | 15 µM
CCCCCC(=O)O[C@]1(C(C)=O)CC[C@H]2[C@@H]3CCC4=CC(=O)CC[C@]4(C)[C@H]3CC[C@@]21C | 2.02 µM
COC(CN(C(=O)CCl)C(C(=O)NC1CCCCC1)c1ccc(Cl)cc1)OC (configuration not stated) | 7.61 µM
Cc1cccc(Nc2nc(NCc3ccco3)c3ccccc3n2)c1 | 8.01 µM
CN(C(=O)C(Cl)Cl)c1ccc(OC(=O)c2ccco2)cc1 | > 38 µM (inactive)
